What was measured:
Tubulin = assay: Inhibition of Tubulin polymerization in human HeLa cells assessed as decrease in dynamic tyrosinated microtubules after 2 hrs by microplate reader analysis; type: cell-based
[1] = Antiproliferative activity against human IC8 cells after 72 hrs by MTT assay; type: functional, cell-based; details: IC8, 72 h
[2] = Inhibition of sheep brain tubulin polymerization incubated at 37 degC for 10 mins and 0 degC for 5 mins by turbidimetry; parameters: species or system Ovis aries
MES-SA = assay: Antiproliferative activity against human MES-SA cells after 72 hrs by resazurin assay; type: functional, cell-based

| EC50 (Tubulin) | EC50 [2] | SMILES | IC50 [1] | IC50 (MES-SA) |
| --- | --- | --- | --- | --- |
| > 10 µM |  | COc1cc(C(=O)c2cc3ccccc3s2)cc(OC)c1OC |  |  |
| > 10 µM |  | COc1cc(/C=C\c2ccsc2)cc(OC)c1OC |  |  |
| 3.18 µM |  | COc1cc(/C=C/c2cc3ccccc3s2)cc(OC)c1OC |  |  |
| 2.6 µM | 0.08 µM | COc1cc(/C=C\c2cc3ccccc3s2)cc(OC)c1OC | 0.017 µM | 0.013 µM |
| 3.9 µM |  | C=C(c1cc(OC)c(OC)c(OC)c1)c1csc2ccccc12 |  |  |
| > 10 µM |  | COc1cc(/C=C\c2cccs2)cc(OC)c1OC |  |  |
| > 10 µM |  | C=C(c1cc(OC)c(OC)c(OC)c1)c1cc2ccccc2o1 |  |  |
| 0.321 µM |  | C=C(c1cc(OC)c(OC)c(OC)c1)c1cc2ccccc2s1 | 0.101 µM | 0.095 µM |
| > 10 µM |  | C=C(c1ccsc1)c1cc(OC)c(OC)c(OC)c1 |  |  |
| 2.43 µM |  | COc1cc(/C=C\c2csc3ccccc23)cc(OC)c1OC | 0.288 µM | 0.191 µM |
| 0.081 µM |  | COc1csc(/C=C\c2cc(OC)c(OC)c(OC)c2)c1 | 0.027 µM | 0.025 µM |
| > 10 µM |  | COc1cc(C(=O)c2csc3ccccc23)cc(OC)c1OC |  |  |
| > 10 µM |  | C=C(c1cc(OC)c(OC)c(OC)c1)c1cccs1 |  |  |
| 1.56 µM |  | COc1ccc(/C=C\c2cc(OC)c(OC)c(OC)c2)s1 | 0.076 µM | 0.053 µM |
|  |  | COc1cc2c(c(OC)c1OC)-c1ccc(OC)c(=O)cc1[C@@H](NC(C)=O)CC2 [COLCHICINE] | 0.015 µM | 0.015 µM |
|  |  | COc1ccc(/C=C\c2cc(OC)c(OC)c(OC)c2)cc1O [COMBRETASTATIN A4] | 0.004 µM | 0.003 µM |
